This is an account of results in patent publication US6825200B1, “Substituted dipeptides having nos inhibiting activity” (Fujisawa Pharmaceutical Co., Ltd., priority 1999, dated 2004).

What is called inhibition is the relative decrease from the control value, in per cent. A high value points to strong suppression. As a reminder, the melting point is the temperature, or range, at which the solid turns liquid.

Structures are written as SMILES.

For the first series, the system named is production of nitric oxide in murine macrophage cell line RAW264.7. As to the kind of experiment: Assay for inhibitory activity on the production of nitric oxide (Griess reagent, LPS/INF γ-activated RAW264.7 cells). The series is classed as cell-based. The settings on record: Mus musculus; test compound 10^−6 M; RAW264.7 cells activated with LPS (1 μg/ml) and INF γ (3 u/ml) for 18-24 hours; NO2^− by Griess reagent. How it is done:
Test 1: Assay for Inhibitory Activity on the Production of Nitric Oxide The murine macrophage cell line RAW264.7 (American Type Culture Collection, No. TIB71) was used in this study. RAW264.7 cells were grown on […] plastic culture flasks at 37° C., 5% in Dulbecco's modified Eagle's medium (DMEM) supplemented with L-glutamine, penicillin, streptomycin and 10% heat-inactivated fetal bovine serum. They were removed from culture flasks by rubber cell scraper and were centrifuged and resuspended in DMEM without phenol red. They were plated in 96-well microtiter plates (10^5 cells per well) and allowed to adhere over 2 hours. The test samples were added and the cells were preincubated for 1 hour. Thereafter the cells were activated with both of lipopolysaccharide (LPS) (1 μg/ml) and interferon γ (INF γ) (3 u/ml) for 18-24 hours. An equal volume of Griess reagent (1% sulfanilamide/0.1% N-naphthylethylenediamine dihydrochloride/2.5% H3PO4) was added and the cells were incubated at room temperature for 10 minutes. The absorbance was read at 570 nm using microplate reader and NO2^- was measured using NaNO2 as a standard.
For orientation: Nitrite, measured by Griess reagent, commonly stands in for NO production.
`O=C(/C=C/c1ccc(Cl)cc1)N[C@@H](Cc1ccccn1)C(=O)NCC(=O)N1CCN(CCC(F)(F)F)CC1` [Compound (d), (2E)-3-(4-Chlorophenyl)-N-[(1S)-2-oxo-2-[[2-oxo-2-[4-(3,3,3-trifluoropropyl)-1-piperazinyl]ethyl]amino]-1-(2-pyridylmethyl)ethyl]-2-propenamide] had an inhibition at 1 µM of 100%.

Molecule `C[C@H]1CN(c2ccccc2)CCN1C(=O)CNC(=O)[C@H](Cc1ccccn1)NC(=O)/C=C/c1ccc(Cl)cc1` [Compound (b), (2E)-3-(4-Chlorophenyl)-N-[(1S)-2-[[2-((2S)-2-methyl-4-phenyl-1-piperazinyl)-2-oxoethyl]amino]-2-oxo-1-(2-pyridylmethyl)ethyl]-2-propenamide] came in with an inhibition at 1 µM of 100%.

Turning to `Cc1ccc(N2C[C@@H](C)N(C(=O)CNC(=O)[C@H](Cc3ccccn3)NC(=O)/C=C/c3ccc(Cl)cc3)[C@@H](C)C2)cc1` [Compound (c), (2E)-3-(4-Chlorophenyl)-N-[(1S)-2-[[2-[(2R,6S)-2,6-dimethyl-4-(4-methylphenyl)-1-piperazinyl]-2-oxoethyl]amino]-2-oxo-1-(2-pyridylmethyl)ethyl]-2-propenamide], the inhibition at 1 µM amounted to 100%.

Molecule `O=C(/C=C/c1ccc(Cl)cc1)N[C@@H](Cc1ccccn1)C(=O)NCC(=O)N1CCN(c2ccc(C(F)(F)F)cc2)CC1` [Compound (e), (2E)-3-(4-Chlorophenyl)-N-[(1S)-2-oxo-2-[[2-oxo-2-[4-(4-trifluoromethylphenyl)-1-piperazinyl]ethyl]amino]-1-(2-pyridylmethyl)ethyl]-2-propenamide] registered an inhibition at 1 µM of 99%.

`O=C(N[C@@H](Cc1ccccn1)C(=O)NCC(=O)N1CCN(c2ccc(Cl)cc2)CC1)c1cc2cc(Cl)ccc2o1` [Compound (a), 5-Chloro-N-[(1S)-2-[[2-[4-(4-chlorophenyl)-1-piperazinyl]-2-oxoethyl]amino]-2-oxo-1-(2-pyridylmethyl)ethyl]-1-benzofuran-2-carboxamide] came in with an inhibition at 1 µM of 100%.

In turn, `COc1ccc(N2CCN(C(=O)CNC(=O)[C@H](Cc3ccccn3)NC(=O)c3cc4cc(Cl)ccc4o3)CC2)cc1` [Compound (f), 5-Chloro-N-[(1S)-2-[[2-[4-(4-methoxyphenyl)-1-piperazinyl]-2-oxoethyl]amino]-2-oxo-1-(2-pyridylmethyl)ethyl]-1-benzofuran-2-carboxamide] gave an inhibition at 1 µM of 100%.

System in another series: not given
Assay: not given
Settings: not given
Turning to `C[C@H](NC(=O)[C@H](Cc1ccccn1)NC(=O)c1cc2cc(Cl)ccc2o1)C(=O)N1CCN(c2ccc(Cl)cc2)CC1` [Example 22, 5-Chloro-N-[(1S)-2-[[(1S)-2-[4-(4-chlorophenyl)-1-piperazinyl]-1-methyl-2-oxoethyl]amino]-2-oxo-1-(2-pyridyl-methyl)ethyl]-1-benzofuran-2-carboxamide], the melting point is 152 to 155 °C.

The molecule `O=C(N[C@@H](Cc1ccccn1)C(=O)NCC(=O)N1CCN(c2cccs2)CC1)c1cc2cc(Cl)ccc2o1` [Example 18, 5-Chloro-N-[(1S)-2-oxo-2-[[2-oxo-2-[4-(2-thienyl)-1-piperazinyl]ethyl]amino]-1-(2-pyridylmethyl)ethyl]-1-benzofuran-2-carboxamide] returned a melting point of 75 to 85 °C.

Turning to `COC[C@@H]1CN(c2ccccc2)CCN1C(=O)CNC(=O)[C@H](Cc1ccccn1)NC(=O)c1cc2cc(Cl)ccc2o1` [Example 25, 5-Chloro-N-[(1S)-2-[[2-[(2S)-2-(methoxymethyl)-4-phenyl-1-piperazinyl]-2-oxoethyl]amino]-2-oxo-1-(2-pyridylmethyl)ethyl]-1-benzofuran-2-carboxamide], the melting point is 95 to 100 °C.

`O=C(N[C@@H](Cc1ccccn1)C(=O)NCC(=O)N1CCN(c2ccccc2)C[C@H]1CO)c1cc2cc(Cl)ccc2o1` [Example 26, 5-Chloro-N-[(1S)-2-[[2-[(2S)-2-(hydroxymethyl)-4-phenyl-1-piperazinyl]-2-oxoethyl]amino]-2-oxo-1-(2-pyridylmethyl)ethyl]-1-benzofuran-2-carboxamide] yielded a melting point of 115 to 120 °C.

Regarding `C[C@H](NC(=O)[C@H](Cc1ccccn1)NC(=O)/C=C/c1ccc(Cl)cc1)C(=O)N1CCN(c2ccc(Cl)cc2)CC1` [Example 23, (2E)-3-(4-Chlorophenyl)-N-[(1S)-2-[[(1S)-2-[4-(4-chlorophenyl)-1-piperazinyl]-1-methyl-2-oxoethyl]amino]-2-oxo-1-(2-pyridylmethyl)ethyl]-2-propenamide], the melting point was 179 to 181 °C.
